The Ki is the equilibrium dissociation constant of an inhibitor or competing ligand from its target.

Some targets named below: CA II (Homo sapiens, UniProt P00918); CA IX (Homo sapiens, UniProt Q16790); CA I (Homo sapiens, UniProt P00915); CA IV (Homo sapiens, UniProt P22748); CA XII (Homo sapiens, UniProt O43570).
Common to all, as to experiment: Stopped-Flow kinetic assay, carbonic anhydrase inhibition

Chain of CA IV (P22748 19-284): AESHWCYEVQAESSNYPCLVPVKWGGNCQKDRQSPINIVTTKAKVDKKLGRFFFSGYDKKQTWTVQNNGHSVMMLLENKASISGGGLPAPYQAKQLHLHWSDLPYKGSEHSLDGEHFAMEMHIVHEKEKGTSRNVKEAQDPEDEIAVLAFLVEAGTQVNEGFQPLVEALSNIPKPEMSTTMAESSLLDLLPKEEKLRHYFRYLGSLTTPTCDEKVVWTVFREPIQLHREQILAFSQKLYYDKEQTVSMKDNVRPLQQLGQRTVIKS
Chain of CA XII (O43570 25-354): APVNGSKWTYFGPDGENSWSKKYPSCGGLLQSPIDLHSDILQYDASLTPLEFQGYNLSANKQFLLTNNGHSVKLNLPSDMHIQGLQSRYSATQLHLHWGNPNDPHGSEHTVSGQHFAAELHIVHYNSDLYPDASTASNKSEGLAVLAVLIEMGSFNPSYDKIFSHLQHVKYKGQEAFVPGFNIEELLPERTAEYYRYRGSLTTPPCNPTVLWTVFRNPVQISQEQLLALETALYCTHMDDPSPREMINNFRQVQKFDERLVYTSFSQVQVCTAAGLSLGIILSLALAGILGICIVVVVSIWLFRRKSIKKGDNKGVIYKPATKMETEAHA
Chain of CA I (P00915 whole entry): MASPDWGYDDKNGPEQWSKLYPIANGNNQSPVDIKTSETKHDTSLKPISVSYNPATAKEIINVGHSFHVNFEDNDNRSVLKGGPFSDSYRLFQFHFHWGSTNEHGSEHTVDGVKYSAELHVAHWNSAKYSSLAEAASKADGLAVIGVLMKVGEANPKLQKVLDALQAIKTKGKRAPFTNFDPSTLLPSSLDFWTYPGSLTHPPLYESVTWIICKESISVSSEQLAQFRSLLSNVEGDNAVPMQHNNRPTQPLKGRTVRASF
Procedure for CA II: (§1) All hybrid compounds and individual CAI moieties with OH/SH group were tested for inhibition of off-target isoforms CA I and II and CAI IV, IX and XII by a Stopped-Flow kinetic assay.
Procedure for CA IV: as §1
Procedure for CA IX: as §1
Procedure for CA XII: as §1

As to `O=c1ccc2ccc(OCCO)cc2o1` [Compound G1B, 7-(2-idrossietossi)-2H-cromen-2-one], the Ki on CA II was greater than 10000 nM; at CA IX, 334 nM.

As for `Cc1c(OCC(F)(F)F)ccnc1C[S+]([O-])c1nc2ccccc2n1C(=O)OCCOc1ccc2oc(=O)ccc2c1` (stereo not shown) [Compound A1, 2-((2-Osso-2H-cromen-6-il)ossi)etil 2-(((3-metil-4-(2,2,2-trifluoroetossi)piridin-2-il)metil)sulfinil)-1H-benzo[d]imidazolo-1 carbossilato], the Ki on CA I was greater than 10000 nM; on CA II it was greater than 10000 nM; on CA IV it was 14.4 nM; at CA IX it was 79.2 nM; at CA XII, 53 nM.

Consider `Cc1c(OCC(F)(F)F)ccnc1C[S+]([O-])c1nc2ccccc2n1C(=O)OCCCOc1ccc2oc(=O)ccc2c1` (stereo not shown) [Compound A3], for which the Ki at CA I is greater than 10000 nM; on CA II, greater than 10000 nM; at CA IV, 6.4 nM; on CA IX, 41.6 nM; on CA XII it was 8.9 nM.

`O=c1ccc2cc(OCCO)ccc2o1` [Compound G1A, 6-(2-hydroxyethoxy)-2H-chromen-2-one]: the inhibition constant Ki is greater than 10000 nM on CA I, greater than 10000 nM at CA II and 306 nM on CA IX.

On to `Cc1c(OCC(F)(F)F)ccnc1C[S+]([O-])c1nc2ccccc2n1C(=O)OCCOc1ccc2ccc(=O)oc2c1` (stereo not shown) [Compound A2, 2-((2-Oxo-2H-chromen-7-yl)oxy)ethyl 2-(((3-methyl-4-(2,2,2-trifluoroethoxy)pyridin-2-yl)methyl)sulfinyl)-1H-benzo[d]imidazole-1 carboxylate], for which the Ki on CA I is greater than 10000 nM; at CA II, greater than 10000 nM; at CA IV, 10.3 nM; at CA IX, 97.2 nM; on CA XII, 60.3 nM.

As for `Cc1c(OCC(F)(F)F)ccnc1C[S+]([O-])c1nc2ccccc2n1C(=O)OCCCOc1ccc2ccc(=O)oc2c1` (stereo not shown) [Compound A4], the Ki at CA I was greater than 10000 nM; at CA II, greater than 10000 nM; on CA IV, 7.7 nM; at CA IX, 47 nM; on CA XII, 20.6 nM.

Values taken from patent US20250099446A1, “HYBRID PHARMACEUTICAL COMPOSITION OBTAINED BY CONJUGATION OF A PROTON PUMP INHIBITOR AND A CARBON ANHYDRASE INHIBITOR” (EXO LAB ITALIA, S.r.l., priority 2022, published 2025).
